Species: Homo sapiens
Test: Hypocholesterolemic effect in hypercholesterolemia patient assessed as decrease in LDL cholesterol level
Assay type: functional
Parameters: scale not given: the % may be the effect or the level left

## CC[C@H](C)C(=O)O[C@H]1C[C@@H](C)C=C2C=C[C@H](C)[C@H](CC[C@@H]3C[C@@H](O)CC(=O)O3)[C@H]21 [LOVASTATIN]
  Activity: 22%

From ChEMBL document CHEMBL4145452, “Polymeric bile acid sequestrants: Review of design, in vitro binding activities, and hypocholesterolemic effects” (Eur J Med Chem, 2018)
